In patent US9453026B2, “ACC inhibitors and uses thereof” (Gilead Apollo, Inc., priority 2011, dated 2016):

Molecular target: ACC2 (Homo sapiens, UniProt O00763)
Assay: In vitro ACC2 inhibition assay (ADP-Glo)
Type: biochemical
Details: read-out: ACC2
Description: An exemplary procedure for the in vitro ACC inhibition assay, which can be used to determine the inhibitory action of compounds of the invention toward either ACC1 or ACC2, follows. The ADP-Glo™ Kinase Assay kit from Promega was used. The ADP-Glo™ Kinase Assay is a luminescent ADP detection assay to measure enzymatic activity by quantifying the amount of ADP produced during an enzyme reaction. The assay is performed in two steps; first, after the enzyme reaction, an equal volume of ADP-Glo™ Reagent is added to terminate the reaction and deplete the remaining ATP. Second, the Kinase Detection Reagent is added to simultaneously convert ADP to ATP and allow the newly synthesized ATP to be measured using a luciferase/luciferin reaction. Luminescence can be correlated to ADP concentrations by using an ATP-to-ADP conversion curve. The detailed procedure is as follows. 50 μL of the compound being tested (600 uM in DMSO) was added to a 384-well dilution plate. The compound was diluted 1:3 in succession in DMSO for each row for 11 wells. 0.5 μL ACC2 working solution was added to 384-well white Optiplate assay plate. 0.5 μL diluted compound solution in each column from step 2 to assay plate, each row containing 2 replicates. […] The plates were incubated at room temperature for 15 minutes. 5 μL substrate working solution was added to each well to initiate reaction. […] Plates were incubated at room temperature for 60 minutes. 10 μL ADP glo reagent was added. Plates were incubated at room temperature for 40 minutes. 20 μL kinase detection reagent was added.
Data for each concentration, as well as the positive and negative controls were averaged, and the standard deviation calculated. Percent inhibition was calculated by the formula: 100× (average negative control−compound)/(average negative control−average positive control). The IC50 for each compound was calculated by fitting the data with a non-linear regression equation: Y=Bottom+(Top-Bottom)/(1+10^((Log IC50−X)*HillSlope)), where X is the log of compound concentration and Y is percent inhibition.
The compound numbers correspond to the compound numbers in Table 1.

Chain of ACC2 (O00763 whole entry, species assumed): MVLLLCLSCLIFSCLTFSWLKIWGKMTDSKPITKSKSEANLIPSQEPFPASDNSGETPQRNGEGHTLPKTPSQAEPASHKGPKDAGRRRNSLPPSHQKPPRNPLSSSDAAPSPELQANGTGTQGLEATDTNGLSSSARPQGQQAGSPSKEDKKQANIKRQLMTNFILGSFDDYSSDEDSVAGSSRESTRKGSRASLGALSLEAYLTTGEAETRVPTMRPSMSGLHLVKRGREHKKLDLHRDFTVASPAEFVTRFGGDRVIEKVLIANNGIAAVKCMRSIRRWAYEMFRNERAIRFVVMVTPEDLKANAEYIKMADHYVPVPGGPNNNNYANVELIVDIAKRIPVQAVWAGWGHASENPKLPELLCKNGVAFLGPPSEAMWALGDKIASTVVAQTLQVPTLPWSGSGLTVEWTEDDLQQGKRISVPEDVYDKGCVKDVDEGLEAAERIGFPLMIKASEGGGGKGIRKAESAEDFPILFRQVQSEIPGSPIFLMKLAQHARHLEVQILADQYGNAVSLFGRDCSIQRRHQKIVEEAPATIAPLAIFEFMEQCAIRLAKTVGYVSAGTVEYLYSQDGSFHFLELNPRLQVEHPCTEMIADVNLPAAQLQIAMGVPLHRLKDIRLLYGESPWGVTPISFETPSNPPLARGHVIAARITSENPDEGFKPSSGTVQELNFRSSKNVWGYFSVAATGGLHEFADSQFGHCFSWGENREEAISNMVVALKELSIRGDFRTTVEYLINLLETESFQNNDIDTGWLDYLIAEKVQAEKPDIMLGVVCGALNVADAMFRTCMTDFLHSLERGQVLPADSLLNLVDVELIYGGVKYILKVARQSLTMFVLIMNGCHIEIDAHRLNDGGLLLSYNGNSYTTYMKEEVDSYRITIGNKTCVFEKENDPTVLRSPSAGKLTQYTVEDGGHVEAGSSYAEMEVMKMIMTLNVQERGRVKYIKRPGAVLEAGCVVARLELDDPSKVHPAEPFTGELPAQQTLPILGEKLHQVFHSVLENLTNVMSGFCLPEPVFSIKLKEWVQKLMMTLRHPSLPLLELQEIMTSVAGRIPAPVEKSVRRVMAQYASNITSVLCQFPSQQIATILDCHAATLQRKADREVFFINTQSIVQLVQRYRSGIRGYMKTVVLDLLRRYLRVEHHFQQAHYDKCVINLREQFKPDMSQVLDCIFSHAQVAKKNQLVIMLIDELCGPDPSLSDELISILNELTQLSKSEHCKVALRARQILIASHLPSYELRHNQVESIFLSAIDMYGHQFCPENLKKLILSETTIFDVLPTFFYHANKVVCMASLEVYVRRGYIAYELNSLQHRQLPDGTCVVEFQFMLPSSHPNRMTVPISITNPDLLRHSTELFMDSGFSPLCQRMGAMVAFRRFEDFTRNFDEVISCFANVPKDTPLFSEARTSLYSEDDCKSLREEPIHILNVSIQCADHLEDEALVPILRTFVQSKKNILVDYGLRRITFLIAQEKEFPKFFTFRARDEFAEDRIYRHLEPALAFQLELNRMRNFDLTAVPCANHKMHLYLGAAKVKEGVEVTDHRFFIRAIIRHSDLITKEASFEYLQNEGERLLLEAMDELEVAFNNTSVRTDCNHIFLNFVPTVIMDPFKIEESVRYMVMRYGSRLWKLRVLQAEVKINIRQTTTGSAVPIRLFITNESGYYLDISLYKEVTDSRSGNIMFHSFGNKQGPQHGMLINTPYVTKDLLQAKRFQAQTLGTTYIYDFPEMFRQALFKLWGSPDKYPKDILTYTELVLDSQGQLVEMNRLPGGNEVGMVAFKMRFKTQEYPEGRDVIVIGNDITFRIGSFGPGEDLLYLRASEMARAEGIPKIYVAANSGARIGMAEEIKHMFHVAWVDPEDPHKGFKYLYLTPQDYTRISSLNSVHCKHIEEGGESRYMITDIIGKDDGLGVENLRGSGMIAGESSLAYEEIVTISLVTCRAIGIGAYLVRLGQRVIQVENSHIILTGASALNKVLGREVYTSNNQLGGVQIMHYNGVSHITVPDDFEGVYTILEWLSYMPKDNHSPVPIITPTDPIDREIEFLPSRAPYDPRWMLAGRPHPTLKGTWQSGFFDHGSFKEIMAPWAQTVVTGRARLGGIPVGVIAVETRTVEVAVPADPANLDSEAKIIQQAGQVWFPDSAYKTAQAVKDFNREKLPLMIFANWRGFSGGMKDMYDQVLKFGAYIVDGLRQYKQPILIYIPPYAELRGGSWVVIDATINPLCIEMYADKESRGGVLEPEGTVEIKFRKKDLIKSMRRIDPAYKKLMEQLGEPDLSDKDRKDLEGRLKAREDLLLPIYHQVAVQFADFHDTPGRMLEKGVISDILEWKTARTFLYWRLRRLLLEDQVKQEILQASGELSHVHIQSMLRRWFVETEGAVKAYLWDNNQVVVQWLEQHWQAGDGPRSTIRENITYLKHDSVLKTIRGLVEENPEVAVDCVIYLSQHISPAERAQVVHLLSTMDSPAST

| IC50 [µM] | SMILES |
| --- | --- |
| < 1 | Cc1c(-c2ncco2)sc2c1c(=O)n(C(C)(C)C(=O)O)c(=O)n2C[C@H](O[C@@H]1CCOC1)c1ccccc1 [I-186, 2-methyl-2-[5-methyl-6-(1,3-oxazol-2-yl)-2,4-dioxo-1-[(2R)-2-[(3R)-oxolan-3-yloxy]-2-phenylethyl]-1H,2H,3H,4H-thieno[2,3-d]pyrimidin-3-yl]propanoic acid] |
| < 1 | Cc1c(-c2ncco2)sc2c1c(=O)n(C(C)(C)C(=O)O)c(=O)n2C[C@H](OCC(C)(C)O)c1ccccc1 [I-175, 2-[1-[(2R)-2-(2-hydroxy-2-methylpropoxy)-2-phenylethyl]-5-methyl-6-(1,3-oxazol-2-yl)-2,4-dioxo-1H,2H,3H,4H-thieno[2,3-d]pyrimidin-3-yl]-2-methylpropanoic acid] |
| < 1 | Cc1c(-c2ncco2)sc2c1c(=O)n(C(C)(C)C(=O)O)c(=O)n2C[C@H](OCC(F)(F)F)c1ccccc1 [I-137, 2-methyl-2-[5-methyl-6-(1,3-oxazol-2-yl)-2,4-dioxo-1-[2-phenyl-2-(2,2,2-trifluoroethoxy)ethyl]-1H,2H,3H,4H-thieno[2,3-d]pyrimidin-3-yl]propanoic acid] |
| < 1 | Cc1c(-c2ncco2)sc2c1c(=O)n(C(C)(C)C(=O)O)c(=O)n2C[C@H](O[C@H]1CCCC[C@@H]1C)c1ccccc1 [I-152, 2-methyl-2-[5-methyl-1-[(2R)-2-[[(1S,2S)-2-methylcyclohexyl]oxy]-2-phenylethyl]-6-(1,3-oxazol-2-yl)-2,4-dioxo-1H,2H,3H,4H-thieno[2,3-d]pyrimidin-3-yl]propanoic acid] |
| < 5 | Cc1c(-c2ncco2)sc2c1c(=O)n(C(C)(C)C(=O)O)c(=O)n2C[C@H](OC[C@H](C)O)c1ccccc1 [I-178, 2-[1-[(2R)-2-[(2S)-2-hydroxypropoxy]-2-phenylethyl]-5-methyl-6-(1,3-oxazol-2-yl)-2,4-dioxo-1H,2H,3H,4H-thieno[2,3-d]pyrimidin-3-yl]-2-methylpropanoic acid] |
| < 5 | COc1ccccc1[C@@H](Cn1c(=O)n(C(C)(C)C(=O)O)c(=O)c2c(C)c(-c3ncco3)sc21)OC1COC1 [I-262, (S)-2-(1-(2-(2-methoxyphenyl)-2-(oxetan-3-yloxy)ethyl)-5-methyl-6-(oxazol-2-yl)-2,4-dioxo-1,2-dihydrothieno[2,3-d]pyrimidin-3(4H)-yl)-2-methylpropanoic acid] |
| < 0.1 | Cc1c(-c2ncco2)sc2c1c(=O)n(C(C)(C)C(=O)O)c(=O)n2C[C@H](OCCO)c1ccccc1 [I-169, 2-[1-[(2R)-2-(2-hydroxyethoxy)-2-phenylethyl]-5-methyl-6-(1,3-oxazol-2-yl)-2,4-dioxo-1H,2H,3H,4H-thieno[2,3-d]pyrimidin-3-yl]-2-methylpropanoic acid] |
| < 5 | Cc1c(-c2ncco2)sc2c1c(=O)n(C(C)(C)C(=O)O)c(=O)n2C[C@H](OC(=O)N1CC(O)C1)c1ccccc1 [I-230, 2-[1-[(2R)-2-[(3-hydroxyazetidin-1-yl)carbonyloxy]-2-phenylethyl]-5-methyl-6-(1,3-oxazol-2-yl)-2,4-dioxo-1H,2H,3H,4H-thieno[2,3-d]pyrimidin-3-yl]-2-methylpropanoic acid] |
| < 1 | Cc1c(-c2ncco2)sc2c1c(=O)n(CC#N)c(=O)n2C[C@H](OC(C)C)c1ccccc1 [I-142, 2-(1-((R)-2-Isopropoxy-2-phenylethyl)-5-methyl-6-(oxazol-2-yl)-2,4-dioxo-1,2-dihydrothieno[2,3-d]pyrimidin-3(4H)-yl)acetonitrile] |
| < 1 | Cc1c(-c2ncco2)sc2c1c(=O)n(C(C)(C)C(=O)O)c(=O)n2C[C@H](O[C@H]1CC[C@H](N)CC1)c1ccccc1 [I-166, 2-(1-((R)-2-(((1r,4R)-4-aminocyclohexyl)oxy)-2-phenylethyl)-5-methyl-6-(oxazol-2-yl)-2,4-dioxo-1,2-dihydrothieno[2,3-d]pyrimidin-3(4H)-yl)-2-methylpropanoic acid] |

The remaining lines, values behind:

| SMILES | IC50 [µM] |
| --- | --- |
| CCOC(=O)c1sc2c(c1C)c(=O)n(CC(=O)O)c(=O)n2C[C@@H](O)c1ccccc1 [I-77, 2-[6-(ethoxycarbonyl)-1-[(2S)-2-hydroxy-2-phenylethyl]-5-methyl-2,4-dioxo-1H,2H,3H,4H-thieno[2,3-d]pyrimidin-3-yl]acetic acid] | 5 to 20 |
| O=C(O)Cn1c(=O)c2c3c(sc2n(CCc2ccccc2)c1=O)CCC3 [I-4] | 20 to 50 |
| O=c1c2ccsc2n(CCc2ccccc2)c(=O)n1CCO [I-59] | > 50 |
| CCOC(=O)c1sc2c(c1C)c(=O)n(CCO)c(=O)n2CCc1ccc(F)cc1 [I-26, ethyl 1-[2-(4-fluorophenyl)ethyll]-3-(2-hydroxyethyl)-5-methyl-2,4-dioxo-1H,2H,3H,4H-thieno[2,3-d]pyrimidine-6-carboxylate] | 5 to 20 |
| Cc1c(-c2ncco2)sc2c1c(=O)n(C(C)(C)C(=O)O)c(=O)n2C[C@@H](OC1CCOCC1)c1ccccc1Cl [I-251, 2-[1-[(2S)-2-(2-chlorophenyl)-2-(oxan-4-yloxy)ethyl]-5-methyl-6-(1,3-oxazol-2-yl)-2,4-dioxo-1H,2H,3H,4H-thieno[2,3-d]pyrimidin-3-yl]-2-methylpropanoic acid] | < 5 |
| Cc1c(C2=NCCO2)sc2c1c(=O)n(CC(=O)O)c(=O)n2CCc1ccccc1 [I-87, 2-[6-(4,5-dihydro-1,3-oxazol-2-yl)-5-methyl-2,4-dioxo-1-(2-phenylethyl)-1H,2H,3H,4H-thieno[2,3-d]pyrimidin-3-yl]acetic acid] | < 5 |
| CCOC(=O)c1sc2c(c1C)c(=O)n(C(C)(C)C(=O)O)c(=O)n2CCc1ccccc1O [I-99, 2-[6-(ethoxycarbonyl)-1-[2-(2-hydroxyphenyl)ethyl]-5-methyl-2,4-dioxo-1H,2H,3H,4H-thieno[2,3-d]pyrimidin-3-yl]-2-methylpropanoic acid] | < 5 |
| Cc1c(-n2nccn2)sc2c1c(=O)n(C(C)(C)C(=O)O)c(=O)n2CCc1ccccc1 [I-122, 2-methyl-2-[5-methyl-2,4-dioxo-1-(2-phenylethyl)-6-(2H-1,2,3-triazol-2-yl)-1H,2H,3H,4H-thieno[2,3-d]pyrimidin-3-yl]propanoic acid] | < 1 |
| CCCn1c(=O)c2c(C)c(C(=O)OCC)sc2n(CCc2ccccc2)c1=O [I-9, ethyl 5-methyl-2,4-dioxo-1-(2-phenylethyl)-3-propyl-1H,2H,3H,4H-thieno[2,3-d]pyrimidine-6-carboxylate] | > 50 |
| CCOC(=O)c1sc2c(c1C)c(=O)n(C(C)(C)C(=O)O)c(=O)n2C[C@@H](OC(C)(C)C)c1ccccc1 [I-128, 2-[1-[(2S)-2-(tert-butoxy)-2-phenylethyl]-6-(ethoxycarbonyl)-5-methyl-2,4-doxo-1H,2H,3H,4H-thieno[2,3-d]pyrimidin-3-yl]-2-methylpropanoic acid] | 20 to 50 |
| [2H]c1ccc(CCn2c(=O)n(CC(=O)O)c(=O)c3c(C)c(C(=O)OCC)sc32)cc1 [I-66, 2-(1-(4-deuterophenethyl)-6-(ethoxycarbonyl)-5-methyl-2,4-doxo-1,2-dihydrothieno[2,3-d]pyrimidin-3(4H)-yl)acetic acid] | < 5 |
| O=C(O)Cn1c(=O)c2c3c(sc2n(CC(=O)c2ccccc2)c1=O)CCCC3 [I-2] | > 50 |
| COC(=O)c1sc2c(c1C)c(=O)n(CCO)c(=O)n2CCc1c(F)cccc1F [I-25] | > 50 |
| Cc1c(C(=O)OCCO)sc2c1c(=O)n(CCO)c(=O)n2CCc1ccccc1 [I-42, 2-hydroxyethyl 3-(2-hydroxyethyl)-5-methyl-2,4-dioxo-1-(2-phenylethyl)-1H,2H,3H,4H-thieno[2,3-d]pyrimidine-6-carboxylate] | 20 to 50 |
| Cc1c(C2CC2)sc2c1c(=O)n(C(C)(C)C(=O)O)c(=O)n2CCc1ccccc1 [I-132, 2-[6-cyclopropyl-5-methyl-2,4-dioxo-1-(2-phenylethyl)-1H,2H,3H,4H-thieno[2,3-d]pyrimidin-3-yl]-2-methylpropanoic acid] | 20 to 50 |
| O=C(O)Cn1c(=O)c2ccsc2n(CCc2ccccc2)c1=O [I-65, 2-[2,4-dioxo-1-(2-phenylethyl)-1H,2H,3H,4H-thieno[2,3-d]pyrimidin-3-yl]acetic acid] | > 50 |
| CCCc1ccccc1CCn1c(=O)n(C(C)(C)C(N)=O)c(=O)c2c(C)c(-c3ncco3)sc21 [I-151, 2-methyl-2-[5-methyl-6-(1,3-oxazol-2-yl)-2,4-dioxo-1-[2-(2-propylphenyl)ethyl]-1H,2H,3H,4H-thieno[2,3-d]pyrimidin-3-yl]propanamide] | < 1 |
| CCOC(=O)c1sc2c(c1C)c(=O)n(CC(=O)OC(C)(C)C)c(=O)n2CCc1ccccc1 [I-8] | 5 to 20 |
| CCNC(=O)c1sc2c(c1C)c(=O)n(CCO)c(=O)n2CCc1ccccc1 [I-18] | > 50 |
| CCOC(=O)c1sc2c(c1C)c(=O)n(CCO)c(=O)n2CCc1cc(F)cc(F)c1 [I-29, ethyl 1-[2-(3,5-difluorophenyl)ethyl]-3-(2-hydroxyethyl)-5-methyl-2,4-dioxo-1H,2H,3H,4H-thieno[2,3-d]pyrimidine-6-carboxylate] | > 50 |
